pIC50: −log10 of the molar value.
Experiments:
MIAPaCa-2 (pancreas) = assay: In vitro cytotoxic activity MTT assay, MIAPaCa-2; format: cell-based; conditions: Homo sapiens, MIA PaCa-2; MIAPaCa-2 cells, exposed for 96 hours; read-out: IC50, 50% inhibition of cell proliferation, MIAPaCa-2 (pancreas)
Experimental: (§1) Compounds 1-16 were screened for their in vitro cytotoxic activity utilizing a 3-(4,5-dimethyl-thiazol-2-yl)-2,5-diphenyltetrazolium bromide (MTT) assay against selected cancer human cell lines consisting of PC3 (prostate), HCT116 (colon), A375 (melanoma), H1299 (lung), MIAPaCa-2 (pancreas), HL60 (leukemia), MCF7 (breast), MDA-MB-231 (breast) (T. Mosmann, J. Immunol. Meth., 1983, 65, 55-63). The cells were cultured at 37° C. in RMPI1640 medium supplemented with 10% fetal bovine serum, 50 IU/mL penicillin, and 50 μg/mL streptomycin in a 5% CO2 incubator. All cells were sub-cultured 3 times/week by trypsinisation. Viable cells were seeded and allowed to adhere for 12 h before a test drug was added in 96-well plates at an initial density of 1.0×10^5 cells/mL. Tumour cell lines were separately exposed to various concentrations of the tested compounds followed by incubation at a temperature of 37° C. during 96 h inside a medium of fresh RMPI 1640. Cells were subsequently incubated at 37° C. using MTT at 0.5 mg/mL during 4 h. After removal of supernatant, formazan crystals were dissolved in isopropanol and the optical density was measured at 570 nm. CX-4945 was used as a positive control.

MCF7 (breast) = assay: In vitro cytotoxic activity MTT assay, MCF7; format: cell-based; conditions: Homo sapiens; MCF7 cells, exposed for 96 hours; read-out: IC50, 50% inhibition of cell proliferation, MCF7 (breast)
Experimental: as §1

A375 (melanoma) = assay: In vitro cytotoxic activity MTT assay, A375; format: cell-based; conditions: Homo sapiens, A-375; A375 cells, exposed for 96 hours; read-out: IC50, 50% inhibition of cell proliferation, A375 (melanoma)
Experimental: as §1

HL60 (leukemia) = assay: In vitro cytotoxic activity MTT assay, HL60; format: cell-based; conditions: Homo sapiens, HL-60; HL60 cells, exposed for 96 hours; read-out: IC50, 50% inhibition of cell proliferation, HL60 (leukemia)
Experimental: as §1

MDA-MB-231 (breast) = assay: In vitro cytotoxic activity MTT assay, MDA-MB-231; format: cell-based; conditions: Homo sapiens; MDA-MB-231 cells, exposed for 96 hours; read-out: IC50, 50% inhibition of cell proliferation, MDA-MB-231 (breast)
Experimental: as §1

PC3 (prostate) = assay: In vitro cytotoxic activity MTT assay, PC3; format: cell-based; conditions: Homo sapiens, PC-3; PC3 cells, exposed for 96 hours; read-out: IC50, 50% inhibition of cell proliferation, PC3 (prostate)
Experimental: as §1

H1299 (lung) = assay: In vitro cytotoxic activity MTT assay, H1299; format: cell-based; conditions: Homo sapiens, NCI-H1299; H1299 cells, exposed for 96 hours; read-out: IC50, 50% inhibition of cell proliferation, H1299 (lung)
Experimental: as §1

HCT116 (colon) = assay: In vitro cytotoxic activity MTT assay, HCT116; format: cell-based; conditions: Homo sapiens, HCT-116; HCT116 cells, exposed for 96 hours; read-out: IC50, 50% inhibition of cell proliferation, HCT116 (colon)
Experimental: as §1

recombinant human CK2 = biological target: T1, recombinant human CK2 (Homo sapiens, UniProt P68400); assay: CK2 Kinase Assay (33P-ATP, substrate peptide RRRDDDSDDD); format: biochemical; conditions: final ATP concentration 15 μM, 10 min at 30° C.; read-out: protein kinase CK2 IC50
T1 construct: purchased Millipore
Experimental: CK2 Kinase Assay was conducted using the protocol as described in Pierre F. et al; J. Med. Chem. 2011, 54, 635-654. The tested compounds in aqueous solution were added at a volume of 10 μL to a reaction mixture comprising 10 μL of assay dilution buffer (ADB; 20 mM MOPS, pH 7.2, 25 mM β-glycerol phosphate, 5 mM EGTA, 1 mM sodium orthovanadate, and 1 mM dithiothreitol), 10 μL of substrate peptide (RRRDDDSDDD, dissolved in ADB at a concentration of 1 mM), 10 μL of recombinant human CK2 (RR-holoenzyme, 25 ng dissolved in ADB; Millipore). Reactions were initiated by the addition of 10 μL of ATP solution (90% 75 mMMgCl2, 75 μM ATP (final ATP concentration:15 μM) dissolved in ADB; 10% [γ-33P] ATP (stock 1 mCi/100 μL; 3000 Ci/mmol (Perkin-Elmer) and maintained for 10 min at 30° C. The reactions were quenched with 100 μL of 0.75% phosphoric acid and then transferred to and filtered through a phosphor cellulose filter plate (Millipore). After washing each well five times with 0.75% phosphoric acid, the plate was dried under vacuum for 5 min and, following the addition of 15 μL of scintillation fluid to each well, the residual radioactivity was measured using a Wallac […] counter. The IC50 values were derived from eight concentrations of test inhibitors.

T1 sequence (P68400 whole entry): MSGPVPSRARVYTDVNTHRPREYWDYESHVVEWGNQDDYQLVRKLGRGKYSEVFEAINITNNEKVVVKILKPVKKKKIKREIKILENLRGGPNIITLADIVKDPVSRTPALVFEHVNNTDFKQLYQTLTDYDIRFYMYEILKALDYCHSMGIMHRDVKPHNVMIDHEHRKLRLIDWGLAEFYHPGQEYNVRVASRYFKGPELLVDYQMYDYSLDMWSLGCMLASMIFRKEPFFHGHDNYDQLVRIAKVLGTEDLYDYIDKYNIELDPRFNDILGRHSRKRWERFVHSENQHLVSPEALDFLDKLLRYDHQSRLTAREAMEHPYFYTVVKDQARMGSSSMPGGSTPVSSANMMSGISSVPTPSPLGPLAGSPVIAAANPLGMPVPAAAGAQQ
T1 sequence (P67870 whole entry partner): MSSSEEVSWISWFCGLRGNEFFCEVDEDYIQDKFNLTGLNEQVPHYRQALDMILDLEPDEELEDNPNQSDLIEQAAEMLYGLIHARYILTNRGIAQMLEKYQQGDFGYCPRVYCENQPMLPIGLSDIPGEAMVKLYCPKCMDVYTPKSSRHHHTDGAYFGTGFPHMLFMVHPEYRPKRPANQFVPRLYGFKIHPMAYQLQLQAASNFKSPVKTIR

Q: `O=C1Nc2c(Nc3cccc(Cl)c3)nc3cc(C(=O)O)ccc3c2C1=O` [Compound 1, 4-((3-chlorophenyl)amino)-1,2-dioxo-2,3-dihydro-1H-pyrrolo[2,3-c]quinoline-7-carboxylic acid] was tested. Which pIC50 (MIAPaCa-2 (pancreas)) did it give?
A: Its pIC50 is 5.82.

Q: And the pIC50 (MCF7 (breast))?
A: The pIC50 was 5.29.

Q: And the pIC50 (A375 (melanoma))?
A: The pIC50 was 5.64.

Q: And the pIC50 (HL60 (leukemia))?
A: The pIC50 was 5.54.

Q: And the pIC50 (MDA-MB-231 (breast))?
A: The pIC50 was 5.42.

Q: What about the pIC50 (PC3 (prostate)) of the same compound?
A: The pIC50 was 6.05.

Q: What about the pIC50 (H1299 (lung)) of the same compound?
A: Its pIC50 is 5.80.

Q: And the pIC50 (HCT116 (colon))?
A: Its pIC50 is 5.96.

Q: And the pIC50 (recombinant human CK2)?
A: Its pIC50 is 7.72.

Source: patent US11866437B1, “1,2-dioxo-2,3-dihydro-1H-pyrrolo[2,3-c]quinoline-7-carboxylic acid compounds as CK2 inhibitors” (KING FAISAL UNIVERSITY, priority 2023, dated 2024)
